Test results as given in ChEMBL document CHEMBL3508693 (2016).

Key:
[1] = % of radioactivity recovered as M6 from M4 in urine following oral administration of [14C] aliskiren hemifumarate at 100 mg.Kg-1 level in rat; type: ADME, organism-based, Albino HAN:WIST; conditions: in vivo
[2] = % of radioactivity recovered as M6 from M4 in plasma following intravenous administration of [14C] aliskiren hemifumarate at 10 mg.Kg-1 level in rat; type: ADME, organism-based, Albino HAN:WIST; conditions: in vivo
[3] = % aliskiren recovered as metabolite M6 in urine following 10 day repeated oral administration of [14C] aliskiren hemifumarate at 100 mg.Kg-1 level studied in rat; type: ADME, organism-based, Albino HAN:WIST; conditions: in vivo, 240 h
[4] = % aliskiren recovered as metabolite M6 in faeces following 10 day repeated oral administration of [14C] aliskiren hemifumarate at 100 mg.Kg-1 level studied in rat; type: ADME, organism-based, Albino HAN:WIST, Feces; conditions: in vivo, 240 h
[5] = % aliskiren recovered as M6 from M4 of receiver rat following duodenal infusion of radioactivity through bile from donor rat treated with single intravenous administration of 10 mg.Kg-1 [14C] aliskiren hemifumarate; type: ADME, organism-based, HAN:WIST(SPF); conditions: in vivo
[6] = % aliskiren hemifumarate recovered as M6 from M4 in urine following single oral dose of 300 mg [14C]SPP100 studied in healthy men; type: ADME, organism-based; conditions: human, in vivo, at 300 mg
[7] = % aliskiren recovered as metabolite M6 in plasma following 10 day repeated oral administration of [14C] aliskiren hemifumarate at 100 mg.Kg-1 level studied in rat; type: ADME, organism-based, Albino HAN:WIST; conditions: in vivo, 240 h
[8] = % aliskiren recovered as M6 from M4 in bile following single intravenous administration of 10 mg.Kg-1 [14C] aliskiren hemifumarate in male rat; type: ADME, organism-based, HAN:WIST(SPF); conditions: in vivo
[9] = % of radioactivity recovered as M6 from M4 in faeces following intravenous administration of [14C] aliskiren hemifumarate at 10 mg.Kg-1 level in rat; type: ADME, organism-based, Albino HAN:WIST, Feces; conditions: in vivo
[10] = % aliskiren recovered as M6 from M4 in urine following single intravenous administration of 10 mg.Kg-1 [14C] aliskiren hemifumarate in male rat; type: ADME, organism-based, HAN:WIST(SPF); conditions: in vivo
[11] = % of radioactivity recovered as M6 from M4 in faeces following oral administration of [14C] aliskiren hemifumarate at 100 mg.Kg-1 level in rat; type: ADME, organism-based, Albino HAN:WIST, Feces; conditions: in vivo
[12] = % aliskiren hemifumarate recovered as M6 from M4 in faeces following single oral dose of 300 mg [14C]SPP100 studied in healthy men; type: ADME, organism-based, Feces; conditions: human, in vivo
[13] = % of radioactivity recovered as M6 from M4 in urine following intravenous administration of [14C] aliskiren hemifumarate at 10 mg.Kg-1 level in rat; type: ADME, organism-based, Albino HAN:WIST; conditions: in vivo
[14] = % of radioactivity recovered as M6 from M4 in plasma following oral administration of [14C] aliskiren hemifumarate at 100 mg.Kg-1 level in rat; type: ADME, organism-based, Albino HAN:WIST; conditions: in vivo
[15] = % aliskiren recovered as M6 from M4 in hydrolysed following single intravenous administration of 10 mg.Kg-1 [14C] aliskiren hemifumarate in male rat; type: ADME, organism-based, HAN:WIST(SPF), Bile; conditions: in vivo
[16] = % aliskiren hemifumarate recovered as M6 from M4 in urine and faeces following single oral dose of 300 mg [14C]SPP100 studied in healthy men; type: ADME, organism-based, Urine/Feces; conditions: human, in vivo, at 300 mg
[17] = % of radioactivity recovered as M5 from M1 in faeces following intravenous administration of [14C] aliskiren hemifumarate at 10 mg.Kg-1 level in rat; type: ADME, organism-based, Albino HAN:WIST, Feces; conditions: in vivo
[18] = % of radioactivity recovered as M5 from M1 in plasma following oral administration of [14C] aliskiren hemifumarate at 100 mg.Kg-1 level in rat; type: ADME, organism-based, Albino HAN:WIST; conditions: in vivo
[19] = % of radioactivity recovered as M5 from M1 in urine following oral administration of [14C] aliskiren hemifumarate at 100 mg.Kg-1 level in rat; type: ADME, organism-based, Albino HAN:WIST; conditions: in vivo
[20] = % aliskiren recovered as M5 from M1 in bile following single intravenous administration of 10 mg.Kg-1 [14C] aliskiren hemifumarate in male rat; type: ADME, organism-based, HAN:WIST(SPF); conditions: in vivo
[21] = % aliskiren recovered as M5 from M1 in hydrolysed following single intravenous administration of 10 mg.Kg-1 [14C] aliskiren hemifumarate in male rat; type: ADME, organism-based, HAN:WIST(SPF), Bile; conditions: in vivo
[22] = % of radioactivity recovered as M5 from M1 in faeces following oral administration of [14C] aliskiren hemifumarate at 100 mg.Kg-1 level in rat; type: ADME, organism-based, Albino HAN:WIST, Feces; conditions: in vivo
[23] = % aliskiren recovered as M5 from M1 in urine following single intravenous administration of 10 mg.Kg-1 [14C] aliskiren hemifumarate in male rat; type: ADME, organism-based, HAN:WIST(SPF); conditions: in vivo
[24] = % of radioactivity recovered as M5 from M1 in urine following intravenous administration of [14C] aliskiren hemifumarate at 10 mg.Kg-1 level in rat; type: ADME, organism-based, Albino HAN:WIST; conditions: in vivo
[25] = % aliskiren recovered as M5 from M1 of receiver rat following duodenal infusion of radioactivity through bile from donor rat treated with single intravenous administration of 10 mg.Kg-1 [14C] aliskiren hemifumarate; type: ADME, organism-based, HAN:WIST(SPF); conditions: in vivo
[26] = % of radioactivity recovered as M5 from M1 in plasma following intravenous administration of [14C] aliskiren hemifumarate at 10 mg.Kg-1 level in rat; type: ADME, organism-based, Albino HAN:WIST; conditions: in vivo

COc1ccc(C[C@@H](C[C@H](N)[C@@H](O)C[C@H](C(=O)NCC(C)(C)C(N)=O)C(C)C)C(C)C)cc1O[C@@H]1O[C@H](CO)[C@@H](O)[C@H](O)[C@H]1O
Compound recovery [1]: <= 2% | Compound recovery [2]: <= 2% | Compound recovery [3]: OUTCOME = Observed, VALUE = Minor amounts | Compound recovery [4]: OUTCOME = Observed, VALUE = Minor amounts | Compound recovery [5]: 8.9% | Compound recovery [6]: < 0.1% | Compound recovery [7]: OUTCOME = Observed, VALUE = Minor amounts | Compound recovery [8]: 5% | Compound recovery [9]: OUTCOME = Not detected or not investigated | Compound recovery [10]: 3.2% | Compound recovery [11]: OUTCOME = Not detected or not investigated | Compound recovery [12]: OUTCOME = Not detected | Compound recovery [13]: OUTCOME = Not detected or not investigated | Compound recovery [14]: > 2% | Compound recovery [15]: OUTCOME = Not detected | Compound recovery [16]: < 0.1%

COCCCOc1cc(C[C@@H](C[C@H](N)[C@@H](O)C[C@H](C(=O)NCC(C)(C)C(N)=O)C(C)C)C(C)C)ccc1O[C@@H]1O[C@H](CO)[C@@H](O)[C@H](O)[C@H]1O
Compound recovery [17]: OUTCOME = Not detected or not investigated | Compound recovery [18]: > 2% | Compound recovery [19]: <= 2% | Compound recovery [20]: 5% | Compound recovery [21]: OUTCOME = Not detected | Compound recovery [22]: OUTCOME = Not detected or not investigated | Compound recovery [23]: 3.2% | Compound recovery [24]: OUTCOME = Not detected or not investigated | Compound recovery [25]: 8.9% | Compound recovery [26]: <= 2%
